One block for each compound: values may come before it. Active and inactive are the calls of the source.
What was measured:
[1] = target: DNA dC->dU-editing enzyme APOBEC-3G (Homo sapiens, UniProt Q9HC16); assay: Dose Response confirmation of small molecule APOBEC3G DNA Deaminase Inhibitors via a fluorescence-based single-stranded DNA deaminase assay. [Related pubchem assays (depositor defined):AID493012, AID493028]; type: functional
[2] = target: DNA dC->dU-editing enzyme APOBEC-3A (Homo sapiens, UniProt P31941); assay: A3A deaminase inhibition for selectivity – biochemical, dose response (AID 504722); type: functional
[3] = target: Peroxisome proliferator-activated receptor gamma/Nuclear receptor coactivator 1 (Homo sapiens, UniProt P37231); type: functional;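 further: agonist potency as compounds enhance coactivator SRC-1 recruitment to PPARgamma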
[4] = target: Peroxisome proliferator-activated receptor gamma/Nuclear receptor coactivator 3 (Homo sapiens, UniProt P37231); type: functional;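 further: agonist potency for raising coactivator recruitment to the receptor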
[5] = target: Peroxisome proliferator-activated receptor gamma/Nuclear receptor coactivator 2 (Homo sapiens, UniProt P37231); type: functional;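 further: agonist potency for raising coactivator recruitment to the receptor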
[6] = target: Delta-type opioid receptor (Homo sapiens, UniProt P41143); assay: Counterscreen for agonists of heterodimerization of the mu 1 (OPRM1) and delta 1 (OPRD1) opioid receptors: Luminescence-based cell-based high throughput dose response assay to identify agonists of OPRD1 homodimerization. [Related pubchem assays (depositor defined):AID504326, AID504355, AID504692, AID504904, AID504905]; type: functional
[7] = target: 5-hydroxytryptamine receptor 5A (Homo sapiens, UniProt P47898); assay: Counterscreen for agonists of OPRM1-OPRD1 heterodimerization: luminescence-based cell-based high throughput dose response assay to identify agonists of 5-hydroxytryptamine (serotonin) 5A receptor (HTR5A). [Related pubchem assays (depositor defined):AID504326, AID504355, AID504692, AID504904, AID504905]; type: functional
Mu-type opioid receptor = Mu-type opioid receptor (Homo sapiens, UniProt P35372); assay: Counterscreen for agonists of heterodimerization of the mu 1 (OPRM1) and delta 1 (OPRD1) opioid receptors: Luminescence-based cell-based high throughput dose response assay to identify agonists of OPRM1 homodimerization.; type: functional;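 further: U2OS cells expressing OPRM1 and beta-arrestin as split beta-galactosidase partners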
Cytochrome P450 3A4 = Cytochrome P450 3A4 (Homo sapiens, UniProt P08684);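 further: CYP3A4 tested as one member of a cytochrome P450 panel screen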
SUMO-activating enzyme = SUMO-activating enzyme (Homo sapiens, UniProt Q9UBT2); assay: blockers of UBC9-mediated SUMO conjugation – biochemical, AlphaScreen, SUMOylation inhibitor project, confirmation (AID 2018); type: functional
[8] = target: T1, Ubiquitin-conjugating enzyme E2 N (Homo sapiens, UniProt P61088); type: functional
T1 sequence (P61088 whole entry): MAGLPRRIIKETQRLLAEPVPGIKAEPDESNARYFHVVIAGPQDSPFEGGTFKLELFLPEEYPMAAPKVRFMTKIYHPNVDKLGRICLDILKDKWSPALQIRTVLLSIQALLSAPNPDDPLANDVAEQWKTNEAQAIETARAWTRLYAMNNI

[9] = target: T1, Ubiquitin-conjugating enzyme E2 N; type: functional; remark: listed apart in the source
Bcl-2-related protein A1 = target: T2, Bcl-2-related protein A1 (Mus musculus, UniProt Q07440); type: functional;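 further: confirmatory dose–response counterscreen on Bfl-1, used to check hits from a UBC13 polyubiquitin inhibitor campaign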
T2 sequence (Q07440 whole entry): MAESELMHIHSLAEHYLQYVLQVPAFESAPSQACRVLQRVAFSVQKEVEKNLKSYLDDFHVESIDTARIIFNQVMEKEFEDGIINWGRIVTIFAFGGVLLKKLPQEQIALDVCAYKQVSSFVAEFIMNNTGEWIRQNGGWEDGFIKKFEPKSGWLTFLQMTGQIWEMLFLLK

Cytochrome P450 2C9 = Cytochrome P450 2C9 (Homo sapiens, UniProt P11712)
Ion channel NompC = Ion channel NompC (Danio rerio, UniProt Q7T1G6); assay: Fluorescence counterscreen assay for TRPML3 agonists: dose response cell-based high-throughput screening assay to identify agonists of the transient receptor potential channel N1 (TRPN1). [Related pubchem assays: 1526, 1424, 1448 ]; type: functional
Mucolipin-3 = target: T3, Mucolipin-3 (Homo sapiens, UniProt Q8TDD5); assay: Dose response cell-based high-throughput screening assay for agonists of the transient receptor potential channel ML3 (TRPML3). [Related pubchem assays: 1526, 1424, 1448 ]; type: functional
T3 sequence (Q8TDD5 whole entry): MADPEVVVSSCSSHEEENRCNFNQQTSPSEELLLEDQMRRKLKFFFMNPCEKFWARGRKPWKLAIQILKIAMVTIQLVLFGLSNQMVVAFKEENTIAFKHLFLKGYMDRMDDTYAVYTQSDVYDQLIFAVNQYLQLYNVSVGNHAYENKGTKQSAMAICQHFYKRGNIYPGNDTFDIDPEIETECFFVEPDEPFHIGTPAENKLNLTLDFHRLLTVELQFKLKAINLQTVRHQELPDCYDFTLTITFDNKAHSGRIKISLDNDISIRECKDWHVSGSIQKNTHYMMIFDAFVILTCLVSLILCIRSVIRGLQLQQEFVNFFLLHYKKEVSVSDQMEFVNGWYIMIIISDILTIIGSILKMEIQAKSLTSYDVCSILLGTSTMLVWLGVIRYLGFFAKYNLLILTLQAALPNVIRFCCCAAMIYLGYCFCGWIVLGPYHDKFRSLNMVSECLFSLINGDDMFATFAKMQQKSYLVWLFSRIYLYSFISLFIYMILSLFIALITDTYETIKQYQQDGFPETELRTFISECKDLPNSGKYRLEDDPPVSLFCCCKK

Chain of 5-hydroxytryptamine receptor 5A (P47898 whole entry): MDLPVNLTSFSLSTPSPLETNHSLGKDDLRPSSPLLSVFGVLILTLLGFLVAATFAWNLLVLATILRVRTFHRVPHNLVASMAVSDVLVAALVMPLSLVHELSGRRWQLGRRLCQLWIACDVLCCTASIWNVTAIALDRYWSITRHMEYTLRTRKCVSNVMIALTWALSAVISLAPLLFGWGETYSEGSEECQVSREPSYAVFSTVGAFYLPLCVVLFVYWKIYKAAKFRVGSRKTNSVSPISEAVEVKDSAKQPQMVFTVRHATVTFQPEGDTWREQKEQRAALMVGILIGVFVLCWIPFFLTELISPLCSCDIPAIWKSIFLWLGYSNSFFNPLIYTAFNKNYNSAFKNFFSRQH
Chain of DNA dC->dU-editing enzyme APOBEC-3A (P31941 whole entry): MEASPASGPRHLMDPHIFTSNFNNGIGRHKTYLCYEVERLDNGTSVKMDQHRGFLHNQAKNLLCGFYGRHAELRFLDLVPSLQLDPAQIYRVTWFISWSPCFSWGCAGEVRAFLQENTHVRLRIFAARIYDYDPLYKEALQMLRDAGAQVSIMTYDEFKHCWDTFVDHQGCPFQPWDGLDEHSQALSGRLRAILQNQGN
Chain of Mu-type opioid receptor (P35372 whole entry): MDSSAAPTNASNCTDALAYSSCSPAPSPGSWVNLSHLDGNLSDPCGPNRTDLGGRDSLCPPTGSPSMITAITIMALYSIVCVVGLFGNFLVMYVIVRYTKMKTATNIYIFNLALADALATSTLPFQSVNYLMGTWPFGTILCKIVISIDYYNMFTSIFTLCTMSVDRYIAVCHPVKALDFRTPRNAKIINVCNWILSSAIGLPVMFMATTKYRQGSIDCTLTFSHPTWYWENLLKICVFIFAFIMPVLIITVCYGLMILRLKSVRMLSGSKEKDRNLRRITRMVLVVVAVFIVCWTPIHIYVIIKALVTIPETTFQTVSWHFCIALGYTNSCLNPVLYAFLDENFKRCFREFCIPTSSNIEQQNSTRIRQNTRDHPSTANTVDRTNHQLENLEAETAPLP
Chain of DNA dC->dU-editing enzyme APOBEC-3G (Q9HC16 whole entry): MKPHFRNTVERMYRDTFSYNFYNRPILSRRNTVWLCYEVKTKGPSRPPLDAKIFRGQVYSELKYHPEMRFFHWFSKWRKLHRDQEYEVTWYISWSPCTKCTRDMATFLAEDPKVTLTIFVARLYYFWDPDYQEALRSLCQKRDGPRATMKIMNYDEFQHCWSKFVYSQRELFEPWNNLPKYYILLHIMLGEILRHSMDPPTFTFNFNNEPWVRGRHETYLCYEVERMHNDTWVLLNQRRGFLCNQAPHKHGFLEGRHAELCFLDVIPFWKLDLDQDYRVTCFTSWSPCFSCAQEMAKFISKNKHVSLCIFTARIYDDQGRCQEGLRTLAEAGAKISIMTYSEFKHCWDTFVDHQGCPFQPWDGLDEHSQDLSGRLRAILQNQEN
Chain of Delta-type opioid receptor (P41143 whole entry): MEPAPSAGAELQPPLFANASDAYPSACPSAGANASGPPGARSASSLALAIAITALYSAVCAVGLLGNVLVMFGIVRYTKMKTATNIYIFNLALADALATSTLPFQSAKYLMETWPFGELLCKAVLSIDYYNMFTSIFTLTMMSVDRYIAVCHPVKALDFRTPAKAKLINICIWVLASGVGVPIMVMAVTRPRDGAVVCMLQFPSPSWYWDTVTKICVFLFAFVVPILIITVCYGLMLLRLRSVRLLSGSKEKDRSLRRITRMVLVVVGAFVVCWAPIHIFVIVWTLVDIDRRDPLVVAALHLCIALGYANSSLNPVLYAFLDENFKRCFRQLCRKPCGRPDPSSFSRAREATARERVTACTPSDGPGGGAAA
Chain of Cytochrome P450 3A4 (P08684 whole entry): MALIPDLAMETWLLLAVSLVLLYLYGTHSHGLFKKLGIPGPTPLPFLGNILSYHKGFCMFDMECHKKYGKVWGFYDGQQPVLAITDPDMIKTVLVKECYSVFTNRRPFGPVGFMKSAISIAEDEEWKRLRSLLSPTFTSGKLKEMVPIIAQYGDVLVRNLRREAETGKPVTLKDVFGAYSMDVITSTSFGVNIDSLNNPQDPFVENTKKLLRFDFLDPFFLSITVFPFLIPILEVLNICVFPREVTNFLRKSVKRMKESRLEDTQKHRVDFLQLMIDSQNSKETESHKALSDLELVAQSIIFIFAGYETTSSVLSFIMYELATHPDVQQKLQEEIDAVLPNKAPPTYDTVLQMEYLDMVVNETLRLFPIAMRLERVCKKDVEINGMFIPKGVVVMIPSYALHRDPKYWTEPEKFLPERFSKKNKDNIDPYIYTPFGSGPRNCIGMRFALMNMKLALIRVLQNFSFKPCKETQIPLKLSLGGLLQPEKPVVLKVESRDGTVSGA
Chain of SUMO-activating enzyme (Q9UBE0 whole entry): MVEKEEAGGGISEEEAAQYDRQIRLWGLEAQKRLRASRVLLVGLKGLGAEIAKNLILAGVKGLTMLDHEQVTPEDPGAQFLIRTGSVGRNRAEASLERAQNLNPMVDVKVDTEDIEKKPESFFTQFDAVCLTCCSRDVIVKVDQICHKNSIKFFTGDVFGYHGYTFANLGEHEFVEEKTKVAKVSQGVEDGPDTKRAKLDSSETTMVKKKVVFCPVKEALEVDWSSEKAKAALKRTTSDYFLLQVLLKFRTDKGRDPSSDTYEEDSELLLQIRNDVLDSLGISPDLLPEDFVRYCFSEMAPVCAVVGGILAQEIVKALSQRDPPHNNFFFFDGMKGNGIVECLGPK
Chain of SUMO-activating enzyme (Q9UBT2 whole entry): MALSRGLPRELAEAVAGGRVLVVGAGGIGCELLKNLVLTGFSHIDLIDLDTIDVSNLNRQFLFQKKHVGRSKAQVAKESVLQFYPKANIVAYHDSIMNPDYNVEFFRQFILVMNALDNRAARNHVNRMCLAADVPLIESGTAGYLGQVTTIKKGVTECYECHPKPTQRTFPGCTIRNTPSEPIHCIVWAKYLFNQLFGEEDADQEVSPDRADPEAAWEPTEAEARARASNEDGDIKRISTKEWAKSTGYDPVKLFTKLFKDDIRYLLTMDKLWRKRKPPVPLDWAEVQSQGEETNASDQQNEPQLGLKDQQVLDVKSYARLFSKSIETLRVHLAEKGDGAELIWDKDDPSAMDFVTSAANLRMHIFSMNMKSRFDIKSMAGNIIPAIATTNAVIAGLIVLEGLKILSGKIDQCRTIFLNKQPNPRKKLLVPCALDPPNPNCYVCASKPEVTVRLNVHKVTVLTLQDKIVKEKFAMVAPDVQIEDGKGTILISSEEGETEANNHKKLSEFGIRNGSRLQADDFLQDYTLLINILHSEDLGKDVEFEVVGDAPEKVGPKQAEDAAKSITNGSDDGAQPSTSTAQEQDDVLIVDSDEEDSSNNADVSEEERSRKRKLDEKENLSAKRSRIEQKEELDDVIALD
Chain of Ion channel NompC (Q7T1G6 whole entry): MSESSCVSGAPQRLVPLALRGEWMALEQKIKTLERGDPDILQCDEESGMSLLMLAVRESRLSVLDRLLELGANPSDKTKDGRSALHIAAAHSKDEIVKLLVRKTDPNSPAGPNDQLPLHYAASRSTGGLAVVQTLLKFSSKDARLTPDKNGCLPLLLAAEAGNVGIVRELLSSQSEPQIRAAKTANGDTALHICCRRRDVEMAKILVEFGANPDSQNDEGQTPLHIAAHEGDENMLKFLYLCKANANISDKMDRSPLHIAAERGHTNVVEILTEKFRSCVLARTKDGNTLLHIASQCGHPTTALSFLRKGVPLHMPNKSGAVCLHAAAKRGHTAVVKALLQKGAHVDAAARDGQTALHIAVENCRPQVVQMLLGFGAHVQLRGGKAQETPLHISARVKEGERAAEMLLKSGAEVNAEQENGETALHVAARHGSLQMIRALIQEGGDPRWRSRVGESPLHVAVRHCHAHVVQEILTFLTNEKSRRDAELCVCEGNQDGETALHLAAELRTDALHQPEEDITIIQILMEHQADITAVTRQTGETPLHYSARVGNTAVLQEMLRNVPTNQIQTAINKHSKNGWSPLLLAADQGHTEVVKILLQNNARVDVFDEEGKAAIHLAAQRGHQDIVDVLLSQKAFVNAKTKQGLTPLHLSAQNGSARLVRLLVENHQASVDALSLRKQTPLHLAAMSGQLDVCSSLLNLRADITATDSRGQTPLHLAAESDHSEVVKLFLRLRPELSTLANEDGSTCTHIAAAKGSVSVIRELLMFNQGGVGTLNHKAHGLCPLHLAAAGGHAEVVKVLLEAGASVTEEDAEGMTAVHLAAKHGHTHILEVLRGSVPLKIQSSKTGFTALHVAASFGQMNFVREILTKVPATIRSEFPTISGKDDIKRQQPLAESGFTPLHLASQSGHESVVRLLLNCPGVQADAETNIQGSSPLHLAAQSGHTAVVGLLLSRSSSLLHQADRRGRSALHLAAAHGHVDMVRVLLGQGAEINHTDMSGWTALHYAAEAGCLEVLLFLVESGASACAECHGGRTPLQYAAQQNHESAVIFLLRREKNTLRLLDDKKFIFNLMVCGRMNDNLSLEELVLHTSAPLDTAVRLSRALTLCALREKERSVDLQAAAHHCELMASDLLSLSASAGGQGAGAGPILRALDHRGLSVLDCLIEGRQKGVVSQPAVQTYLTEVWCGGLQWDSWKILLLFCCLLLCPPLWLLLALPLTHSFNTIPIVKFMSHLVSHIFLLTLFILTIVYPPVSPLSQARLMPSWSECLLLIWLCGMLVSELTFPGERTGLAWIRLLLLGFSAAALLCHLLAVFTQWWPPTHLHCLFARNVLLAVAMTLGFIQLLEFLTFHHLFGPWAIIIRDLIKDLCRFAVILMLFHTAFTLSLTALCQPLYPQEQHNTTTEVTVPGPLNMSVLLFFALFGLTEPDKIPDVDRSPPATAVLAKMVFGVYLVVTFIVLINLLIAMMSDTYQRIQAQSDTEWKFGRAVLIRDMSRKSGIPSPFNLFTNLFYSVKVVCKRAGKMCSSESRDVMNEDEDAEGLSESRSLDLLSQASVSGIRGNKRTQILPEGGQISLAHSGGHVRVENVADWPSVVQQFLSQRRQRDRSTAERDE

SMILES: O=c1[nH]c(SCc2n[nH]c(=S)n2-c2ccccc2)nc2ccccc12
IC50 [1]: 3.8 µM (active)
IC50 [2]: > 100 µM (inactive)

EC50 [3]: > 79.4 µM (not active)
EC50 [4]: > 79.4 µM (not active)
EC50 [5]: > 79.4 µM (not active)
SMILES: CC(C)n1c(SCC(=O)NCc2ccco2)nc2c1c(=O)n(C)c(=O)n2C

EC50 [6]: > 92.5 µM (inactive)
EC50 [7]: > 92.5 µM (inactive)
EC50 (Mu-type opioid receptor): > 92.5 µM (inactive)
SMILES: Cc1ccc(OCC(=O)Nc2ccc(NC(=O)c3cccs3)cc2)c(C)c1

AC50 (Cytochrome P450 3A4): inconclusive
SMILES: N#Cc1cccc(NC(=O)N2CC3(CCN(C(=O)c4cccc(F)c4)CC3)C2)c1

IC50 (SUMO-activating enzyme): 40.7 µM (active)
SMILES: Cc1cc(/C=C2\C(=O)NN(c3ccccc3)C2=O)c(C)n1-c1ccccc1O

IC50 [8]: 10.2 µM (active)
IC50 [9]: 0.509 µM (active)
IC50 (Bcl-2-related protein A1): > 20 µM (inactive)
SMILES: Cc1cc(C)c2[nH]c(O)c(N=NC(S)=NCC3CCCO3)c2c1 (stereo not given)

AC50 (Cytochrome P450 2C9): 11.2 µM (inconclusive)
EC50 (Ion channel NompC): > 29.9 µM (not active)
EC50 (Mucolipin-3): 10.1 µM (not active)
SMILES: CN(C)S(=O)(=O)c1cc([N+](=O)[O-])ccc1N1CCCCCC1

EC50 [6]: > 92.5 µM (inactive)
EC50 [7]: > 92.5 µM (inactive)
EC50 (Mu-type opioid receptor): > 92.5 µM (inactive)
SMILES: Cc1cc(=O)oc2cc(NC(=O)C3COc4ccccc4O3)ccc12 (stereo not given)

SMILES: COc1cc(-c2n[nH]c(=S)n2-c2ccc(C)cc2)cc(OC)c1OC
IC50 [1]: 3.38 µM (active)
IC50 [2]: > 100 µM (inactive)

AC50 (Cytochrome P450 3A4): inconclusive
SMILES: Cn1c(=O)[nH]c(=O)c2c1nc(CN1CCOCC1)n2Cc1ccccc1

EC50 [6]: 26.9 µM (inactive)
EC50 [7]: > 92.5 µM (inactive)
EC50 (Mu-type opioid receptor): 18.5 µM (inactive)
SMILES: COc1ccc(C(CNC(=O)c2cncc(Br)c2)N(C)C)cc1 (stereo not given)

SMILES: Sc1nnc(-c2ccncc2)n1/N=C/c1ccccc1Cl
IC50 [1]: 3.46 µM (active)
IC50 [2]: > 100 µM (inactive)

SMILES: COc1ccc(/C=N/n2c(S)nnc2-c2[nH]nc3c2CCC3)cc1
IC50 [1]: 3.61 µM (active)
IC50 [2]: > 100 µM (inactive)

IC50 (SUMO-activating enzyme): 45.5 µM (active)
SMILES: Cc1cc(C(=O)N/N=C/c2ccc(-c3ccc(C)c(Cl)c3)o2)[nH]n1

From ChEMBL document CHEMBL1201862, “PubChem BioAssay data set” (2004)
